Target: recombinant human HPK1 (Homo sapiens (Human), UniProt Q92918)
Assay: HPK1 kinase assay (ADP-Glo)
Format: biochemical
Settings: 25 μM ATP, MBP substrate
Method in brief: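 Activity was read as ADP formed, detected by ADP-Glo luminescence after the reaction of 5 ng recombinant human HPK1 with MBP and ATP (stocks 0.5 μg/μl and 25 μM) for 40 min at 30 °C. Buffer was Tris pH 7.5 with MgCl2, BSA and DTT, with compound in 0.5% DMSO. IC50 came from inhibition curves.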

Sequence of recombinant human HPK1 (Q92918 whole entry): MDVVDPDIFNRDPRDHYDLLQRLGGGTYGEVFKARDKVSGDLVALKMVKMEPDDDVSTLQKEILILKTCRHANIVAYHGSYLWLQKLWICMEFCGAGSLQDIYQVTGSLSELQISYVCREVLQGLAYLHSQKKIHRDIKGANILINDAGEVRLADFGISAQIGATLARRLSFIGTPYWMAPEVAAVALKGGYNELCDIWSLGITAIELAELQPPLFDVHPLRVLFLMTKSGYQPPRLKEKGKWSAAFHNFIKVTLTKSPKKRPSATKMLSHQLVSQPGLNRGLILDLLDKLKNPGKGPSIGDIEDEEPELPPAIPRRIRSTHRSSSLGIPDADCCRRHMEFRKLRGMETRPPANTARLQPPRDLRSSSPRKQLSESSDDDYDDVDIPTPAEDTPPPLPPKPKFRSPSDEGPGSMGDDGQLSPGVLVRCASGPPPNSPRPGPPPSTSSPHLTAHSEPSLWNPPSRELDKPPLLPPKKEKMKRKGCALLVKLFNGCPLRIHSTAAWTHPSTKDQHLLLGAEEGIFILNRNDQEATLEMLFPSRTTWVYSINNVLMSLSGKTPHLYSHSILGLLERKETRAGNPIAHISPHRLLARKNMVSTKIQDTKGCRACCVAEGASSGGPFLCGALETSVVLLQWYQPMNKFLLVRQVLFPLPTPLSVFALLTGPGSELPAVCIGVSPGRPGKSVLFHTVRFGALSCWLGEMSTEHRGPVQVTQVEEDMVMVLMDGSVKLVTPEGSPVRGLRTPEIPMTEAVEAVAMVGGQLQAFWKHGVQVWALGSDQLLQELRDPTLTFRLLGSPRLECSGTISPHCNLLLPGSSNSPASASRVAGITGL

IC50 | SMILES
< 100 nM | O=C(Nc1nc2ccc(-c3c(Cl)c(F)cc4[nH]ncc34)nc2s1)[C@@H]1C[C@@H]1F [Example 153, (1S,2S)-N-(5-(5-chloro-6-fluoro-1H-indazol-4-yl)thiazolo[5,4-b]pyridin-2-yl)-2-fluorocyclopropane-1-carboxamide]
< 100 nM | CCN(CC)c1c(F)c(Cl)c(-c2ccc3nc(NC(=O)[C@@H]4C[C@@H]4F)sc3n2)c2cn[nH]c12 [Example 154, (1S,2S)-N-(5-(5-chloro-7-(diethylamino)-6-fluoro-1H-indazol-4-yl)thiazolo[5,4-b]pyridin-2-yl)-2-fluorocyclopropane-1-carboxamide]
< 100 nM | COc1c(F)cc2[nH]ncc2c1-c1ccc2nc(NC(=O)[C@@H]3C[C@@H]3F)sc2n1 [Example 155, (1S,2S)-2-fluoro-N-(5-(6-fluoro-5-methoxy-1H-indazol-4-yl)thiazolo[5,4-b]pyridin-2-yl)cyclopropane-1-carboxamide]
101 to 500 nM | N#Cc1c(F)cc2[nH]ncc2c1-c1ccc2nc(NC(=O)[C@@H]3C[C@@H]3F)sc2n1 [Example 157, (1S,2S)-N-(5-(5-cyano-6-fluoro-1H-indazol-4-yl)thiazolo[5,4-b]pyridin-2-yl)-2-fluorocyclopropane-1-carboxamide]
101 to 500 nM | O=C(Nc1nc2ccc(-c3c(C4CC4)c(F)cc4[nH]ncc34)nc2s1)[C@@H]1C[C@@H]1F [Example 158, (1S,2S)-N-(5-(5-cyclopropyl-6-fluoro-1H-indazol-4-yl)thiazolo[5,4-b]pyridin-2-yl)-2-fluorocyclopropane-1-carboxamide]
< 100 nM | CCNc1c(F)c(Cl)c(-c2ccc3nc(NC(=O)[C@@H]4C[C@@H]4F)sc3n2)c2cn[nH]c12 [Example 159, (1S,2S)-N-(5-(5-chloro-7-(ethylamino)-6-fluoro-1H-indazol-4-yl)thiazolo[5,4-b]pyridin-2-yl)-2-fluorocyclopropane-1-carboxamide]
< 100 nM | O=C(Nc1nc2ccc(-c3c(Br)c(F)cc4[nH]ncc34)nc2s1)[C@@H]1C[C@@H]1F [Example 160, (1S,2S)-N-(5-(5-bromo-6-fluoro-1H-indazol-4-yl)thiazolo[5,4-b]pyridin-2-yl)-2-fluorocyclopropane-1-carboxamide]
< 100 nM | Cc1c(F)c(SCCO)c2[nH]ncc2c1-c1ccc2nc(NC(=O)[C@@H]3C[C@@H]3F)sc2n1 [Example 163, (1S,2S)-2-fluoro-N-(5-(6-fluoro-7-((2-hydroxyethyl)thio)-5-methyl-1H-indazol-4-yl)thiazolo[5,4-b]pyridin-2-yl)cyclopropane-1-carboxamide]
> 1000 nM | C[S+]([O-])c1c(F)cc2[nH]ncc2c1-c1ccc2nc(NC(=O)[C@@H]3C[C@@H]3F)sc2n1 (stereo partly drawn) [Example 164, (1S,2S)-2-fluoro-N-(5-(6-fluoro-5-(methylsulfinyl)-1H-indazol-4-yl)thiazolo[5,4-b]pyridin-2-yl)cyclopropane-1-carboxamide]
< 100 nM | CCOC(=O)CSc1c(F)c(CC)c(-c2ccc3nc(NC(=O)[C@@H]4C[C@@H]4F)sc3n2)c2cn[nH]c12 [Example 165, ethyl 2-((5-ethyl-6-fluoro-4-(2-((1S,2S)-2-fluorocyclopropane-1-carboxamido)thiazolo[5,4-b]pyridin-5-yl)-1H-indazol-7-yl)thio)acetate]
< 100 nM | CCc1c(F)c(SCC(=O)N(C)C)c2[nH]ncc2c1-c1ccc2nc(NC(=O)[C@@H]3C[C@@H]3F)sc2n1 [Example 166, (1S,2S)-N-(5-(7-((2-(dimethylamino)-2-oxoethyl)thio)-5-ethyl-6-fluoro-1H-indazol-4-yl)thiazolo[5,4-b]pyridin-2-yl)-2-fluorocyclopropane-1-carboxamide]
101 to 500 nM | CCc1c(F)c(SCC(=O)O)c2[nH]ncc2c1-c1ccc2nc(NC(=O)[C@@H]3C[C@@H]3F)sc2n1 [Example 168, 2-((5-ethyl-6-fluoro-4-(2-((1S,2S)-2-fluorocyclopropane-1-carboxamido)thiazolo[5,4-b]pyridin-5-yl)-1H-indazol-7-yl)thio)acetic acid]
> 1000 nM | O=C(Nc1nc2ccc(-c3c(F)c(C(F)(F)F)cc4[nH]ncc34)nc2s1)[C@@H]1C[C@@H]1F [Example 171, (1S,2S)-2-fluoro-N-(5-(5-fluoro-6-(trifluoromethyl)-1H-indazol-4-yl)thiazolo[5,4-b]pyridin-2-yl)cyclopropane-1-carboxamide]
< 100 nM | CCc1c(F)c(F)c2[nH]ncc2c1-c1ccc2nc(NC(=O)[C@@H]3C[C@@H]3F)sc2n1 [Example 176, (1S,2S)-N-(5-(5-ethyl-6,7-difluoro-1H-indazol-4-yl)thiazolo[5,4-b]pyridin-2-yl)-2-fluorocyclopropane-1-carboxamide]
101 to 500 nM | Cc1c(F)c([S+](C)[O-])c2[nH]ncc2c1-c1ccc2nc(NC(=O)[C@@H]3C[C@@H]3F)sc2n1 (stereo partly drawn) [Example 177, (1S,2S)-2-fluoro-N-(5-(6-fluoro-5-methyl-7-(methylsulfinyl)-1H-indazol-4-yl)thiazolo[5,4-b]pyridin-2-yl)cyclopropane-1-carboxamide]
< 100 nM | CCOc1c(F)c(CC)c(-c2ccc3nc(NC(=O)[C@@H]4C[C@@H]4F)sc3n2)c2cn[nH]c12 [Example 178, (1S,2S)-N-(5-(7-ethoxy-5-ethyl-6-fluoro-1H-indazol-4-yl)thiazolo[5,4-b]pyridin-2-yl)-2-fluorocyclopropane-1-carboxamide]
< 100 nM | CC(=O)Nc1c(F)c(Cl)c(-c2ccc3nc(NC(=O)[C@@H]4C[C@@H]4F)sc3n2)c2cn[nH]c12 [Example 179, (1S,2S)-N-(5-(7-acetamido-5-chloro-6-fluoro-1H-indazol-4-yl)thiazolo[5,4-b]pyridin-2-yl)-2-fluorocyclopropane-1-carboxamide]
101 to 500 nM | C[S+]([O-])c1c(F)c(Cl)c(-c2ccc3nc(NC(=O)[C@@H]4C[C@@H]4F)sc3n2)c2cn[nH]c12 (stereo partly drawn) [Example 180, (1S,2S)-N-(5-(5-chloro-6-fluoro-7-(methylsulfinyl)-1H-indazol-4-yl)thiazolo[5,4-b]pyridin-2-yl)-2-fluorocyclopropane-1-carboxamide]

Continued, compound first:

SMILES | IC50
CN(C)c1c(F)cc(-c2ccc3nc(NC(=O)[C@@H]4C[C@@H]4F)sc3c2)c2cn[nH]c12 [Example 139, (1S,2S)-N-(6-(7-(dimethylamino)-6-fluoro-1H-indazol-4-yl)benzo[d]thiazol-2-yl)-2-fluorocyclopropane-1-carboxamide] | < 100 nM
O=C(Nc1nc2ccc(-c3cc(F)c(OC(F)(F)F)c4[nH]ncc34)cc2s1)[C@@H]1C[C@@H]1F [Example 140, (1S,2S)-2-fluoro-N-(6-(6-fluoro-7-(trifluoromethoxy)-1H-indazol-4-yl)benzo[d]thiazol-2-yl)cyclopropane-1-carboxamide] | > 1000 nM
CSc1c(F)cc(-c2ccc3nc(NC(=O)[C@@H]4C[C@@H]4F)sc3c2)c2cn[nH]c12 [Example 141, (1S,2S)-2-fluoro-N-(6-(6-fluoro-7-(methylthio)-1H-indazol-4-yl)benzo[d]thiazol-2-yl)cyclopropane-1-carboxamide] | > 1000 nM
CSc1ccc(-c2ccc3nc(NC(=O)[C@@H]4C[C@@H]4F)sc3c2)c2cn[nH]c12 [Example 142, (1S,2S)-2-fluoro-N-(6-(7-(methylthio)-1H-indazol-4-yl)benzo[d]thiazol-2-yl)cyclopropane-1-carboxamide] | > 1000 nM
CN(C)C(=O)c1c(F)cc(-c2ccc3nc(NC(=O)[C@@H]4C[C@@H]4F)sc3c2)c2cn[nH]c12 [Example 144, 6-fluoro-4-(2-((1S,2S)-2-fluorocyclopropane-1-carboxamido)benzo[d]thiazol-6-yl)-N,N-dimethyl-1H-indazole-7-carboxamide] | 101 to 500 nM
CN(C)C(=O)c1c(F)cc2[nH]ncc2c1-c1ccc2nc(NC(=O)[C@@H]3C[C@@H]3F)sc2c1 [Example 145, 6-fluoro-4-(2-((1S,2S)-2-fluorocyclopropane-1-carboxamido)benzo[d]thiazol-6-yl)-N,N-dimethyl-1H-indazole-5-carboxamide] | > 1000 nM
Cc1ccc2[nH]ncc2c1-c1ccc2nc(NC(=O)[C@@H]3C[C@@H]3F)sc2n1 [Example 146, (1S,2S)-2-fluoro-N-(5-(5-methyl-1H-indazol-4-yl)thiazolo[5,4-b]pyridin-2-yl)cyclopropane-1-carboxamide] | 101 to 500 nM
Cc1c(F)cc2[nH]ncc2c1-c1ccc2nc(NC(=O)[C@@H]3C[C@@H]3F)sc2n1 [Example 147, (1S,2S)-2-fluoro-N-(5-(6-fluoro-5-methyl-1H-indazol-4-yl)thiazolo[5,4-b]pyridin-2-yl)cyclopropane-1-carboxamide] | < 100 nM
CSc1n[nH]c2cc(F)c(C)c(-c3ccc4nc(NC(=O)[C@@H]5C[C@@H]5F)sc4n3)c12 [Example 148, (1S,2S)-2-fluoro-N-(5-(6-fluoro-5-methyl-3-(methylthio)-1H-indazol-4-yl)thiazolo[5,4-b]pyridin-2-yl)cyclopropane-1-carboxamide] | > 1000 nM
CCOc1c(F)c(Cl)c(-c2ccc3nc(NC(=O)[C@@H]4C[C@@H]4F)sc3n2)c2cn[nH]c12 [Example 149, (1S,2S)—N-(5-(5-chloro-7-ethoxy-6-fluoro-1H-indazol-4-yl)thiazolo[5,4-b]pyridin-2-yl)-2-fluorocyclopropane-1-carboxamide] | < 100 nM
CC(C)c1c(F)cc2[nH]ncc2c1-c1ccc2nc(NC(=O)[C@@H]3C[C@@H]3F)sc2n1 [Example 150, (1S,2S)-2-fluoro-N-(5-(6-fluoro-5-isopropyl-1H-indazol-4-yl)thiazolo[5,4-b]pyridin-2-yl)cyclopropane-1-carboxamide] | < 100 nM
Nc1c(F)cc2[nH]ncc2c1-c1ccc2nc(NC(=O)[C@@H]3C[C@@H]3F)sc2n1 [Example 151, (1S,2S)-N-(5-(5-amino-6-fluoro-1H-indazol-4-yl)thiazolo[5,4-b]pyridin-2-yl)-2-fluorocyclopropane-1-carboxamide] | > 1000 nM
